Reference: patent publication US20190388510A1, “GLUCAGON-T3 CONJUGATES” (priority 2016, published 2019)
*1 amine or outer side, *2 acyl side, *3 side chain or, on linkers, in order; H or OH if unused. Where a SMILES comes first, the peptide text is derived from it. Where no end group is shown, it is not given here. Side-chain parts run from the residue outwards. [ ]: non-standard residue; d: D form. Thyronine(3,5,3'-I3) = N[C@@H](Cc1cc(I)c(Oc2ccc(O)c(I)c2)c(I)c1)C(=O)O; γGlu = O=C(O)[C@H](CCC(=O)[*:2])N[*:1]

Key:
[1] = test system: HFHSD-fed male C57Bl6j mice; assay: Metabolic efficacy of different glucagon/T3 conjugate versions in HFHSD-fed mice; type: in vivo, mouse; settings: 100 nmol kg-1 daily, 14 days
Source text: For studies on lipid handling in wildtype mice (Western mice), male C57Bl/6j mice (Jackson Laboratories) were fed a atherogenic Western diet (Research Diets D12079B), which is a high-cholesterol diet (0.21% gm %) with 41% kcal from fat, 43% kcal from carbohydrates, and 17% kcal from protein. For studies on energy metabolism in obese mice (DIO mice), male C57Bl/6j mice (Jackson Laboratories) were fed a diabetogenic diet (Research Diets D12331), which is a high-sucrose diet with 58% kcal from fat 25.5% kcal from carbohydrates, and 16.4% kcal from protein. Both dietary challenges began at 8 weeks of age. HFHSD and HFHCD mice were single- or group-housed on a 12:12-h light-dark cycle at 22° C. with free access to food and water. Mice were maintained under these conditions for a minimum of 16 weeks before initiation of pharmacological studies and were between the ages of 6 months to 12 months old. All injections and tests were performed during the light cycle. Compounds were administered in a vehicle of 1% Tween-80 and 1% DMSO and were given by daily subcutaneous injections at the indicated doses at a volume of 5 μl per g body weight. Mice were randomized and evenly distributed to test groups according to body weight and body composition. If ex vivo molecular biology/histology/biochemistry analyses were performed, the entire group of mice for each treatment was analyzed and scored in a blinded fashion.
Compounds were administered by repeated subcutaneous injections in the middle of the light phase at the indicated doses with the indicated durations. Co-administration of compounds was administered by single formulated injections. Body weights and food intake were measured every day or every other day after the first injection. All studies with wild-type mice were performed with a group size of n=8 or greater using mice on a C57B16j background.
Blood was collected at the indicated times from tail veins or after euthanasia using EDTA-coated microvette tubes (Sarstedt), immediately chilled on ice, centrifuged at 5,000 g and 4° C., and plasma was stored at −80° C. For […] (FPLC) of cholesterol distribution in different lipoprotein fractions, fresh plasma from each treatment group was pooled (n=6-8) and ran over two Superose 6 HR columns in tandem. Cholesterol levels in the collected fractions were determined by colorimetric assay. Plasma insulin and T3 were quantified by an ELISA assay (Ultrasenstive Mouse Insulin ELISA and Rodent T3 ELISA; Alpco). Plasma FGF21 was quantified by an ELISA assay (Mouse FGF21 ELISA; Millipore). Plasma cholesterol, extracted hepatic cholesterol, triglycerides, ALT, and AST were measured using enzymatic assay kits (Thermo Fisher). Plasma creatinine and blood urea nitrogen were measured using enzymatic assay kits (Abcam). Plasma free fatty acids were measured using enzymatic assay kits (Wako). All assays were performed according to the manufacturers' instructions.

[2] = type: in vitro ADME, human
Procedure: Each compound was incubated with phosphate buffered saline (PBS, pH=7.4) containing 60% mouse plasma at 37° C. for the duration of the study. At the time points of 6 h, 24 h and 72 h, aliquots of the incubated solutions were withdrawn and diluted with acetonitrile to precipitate the plasma proteins, which were subsequently removed by microcentrifugation at 13,000 rpm for 5 mins. The supernatant was collected and diluted for the analytical reversed-phase HPLC using a linear gradient of buffer B over buffer A (A: 10% aqueous acetonitrile, 0.1% TFA; B: 90% aqueous acetonitrile, 0.1% TFA) on a Zorbax C8 column (4.6×50 mm). RNA-Seq Total RNAs were extracted from frozen liver samples of 4 independent mice per group (vehicle, glucagon only, T3 only, co-administration of glucagon and T3 and glucagon/T3) using TriPure RNA reagent (Sigma). Poly-A isolation, library generation and amplification were performed according to the protocol of the mRNASeq Library Prep Kit (Lexogen). […] Mapping of color-coded reads on the mouse genome (mm10 assembly) was performed using the Lifescope software (Life Technologies). Reads for annotated (Ensembl) genes were counted using HtSeq. […] The synergy score (SS) was calculated as the relative fold change (FC) of (glucagon/T3) compared to the maximum FC of T3 and glucagon alone: SS=FC (glucagon/T3)/max (T3, glucagon). […]

DIO mice = assay: Cardiac function and histology in DIO mice (echocardiography); type: in vivo, mouse; settings: mouse, in vivo
Procedure: After chronic treatment, HFHCD-fed or HFHSD-fed C57B16/j male mice (age) were sacrificed with CO2, body weight as well as heart weights and tibia length was taken during necropsy. Livers and whole hearts were embedded in paraffin using a vacuum infiltration processor TissueTEK VIP (Sakura). 3 μm thick slides were cut using a HMS35 rotatory microtome (Zeiss) and H & E staining was performed. For H & E staining, rehydration was done in a decreasing ethanol series, rinsing with tapwater, 2 min Mayers acid Hemalum, bluing in tapwater followed by lmin EosinY (both BioOptica). Dehydration was performed in increasing ethanol series, mounting with Pertex® (Medite GmbH) and coverslips (CarlRoth Chemicals). The slides were evaluated independently using a brightfield microscope (Axioplan, Zeiss). Photos were taken using the Hamamatsu-Nanozoomer HT2.0 in 1.25×, 5×. 20× and 40× magnification. The hepatic steatosis score is defined as the unweighted sum of the three individual scores for steatosis, lobular inflammation and ballooning degeneration. Steatosis is graded by the presence of fat vacuoles in liver cells according to the percentage of affected tissue (0: <5%; 1: 5-33%; 2: 33-66%; 3: >66%). Lobular inflammation is scored by overall assessment of inflammatory foci per 200× field (0: no foci; 1: <2 foci; 2: 2-4 foci; 3: >4 foci). The individual score for ballooning degeneration ranges from 0 (none), 1 (few cells) to 2 (many cells). Total scores range from 0 to 8 with scores <2 considered non-steatosis, 3 considered as borderline steatosis, 4-5 considered onset of steatosis, and >6 considered steatosis. Different to liver and heart, inguinal fat pad samples were embedded in paraffin using Leica embedding machine (EG1150 H) and cut in 5 μm sections using Leica Microtome (RM2255) to perform H&E staining. Samples were stained with hematoxyline for 4 minutes and eosinY for 2 minutes and fixed with Roti®-Histokitt (Carl Roth) before analysing them independently using Microscope Scope A.1 (Zeiss).
For transthoracic echocardiography, a Vevo2100 Imaging System (VisualSonics Inc., Toronto Canada) with a 30 MHz probe was used. All echocardiograms were performed on conscious animals to prevent anesthesia-related impairment of cardiac function as reported previously. Briefly, echocardiograms were obtained in parasternal long and short axis views. For accurate linear measurements of LV internal dimensions (LVID) and […] (LVPW) or septal (IVS) wall thicknesses, M-mode images of the heart in parasternal short-axis view at the level of the papillary muscle were acquired. Qualitative and quantitative measurements were made offline using analytical software (VisualSonics Inc.). Fractional shortening (FS) was calculated as FS %=[(LVIDd−LVIDs)/LVIDd]×100. Ejection fraction (EF) was calculated as EF %=100*((LVvolD−LVvolS)/LVvolD) with LVvol=((7.0/(2.4+LVID)*LVID^3). The corrected LV mass (LV MassCor) was calculated as LV MassCor=0.8(1.053*((LVIDd+LVPWd+IVSd)^3−LVIDd^3)). Heart rate and respiration rate were determined from M-mode tracings, using 3 consecutive intervals.
Gene expression profiling in the liver, iWAT, eWAT, BAT, and heart were performed following treatment of mice according to the treatment paradigms explained in the figure legends for each specific analsysis. For tissue collection, mice were fasted for 4 h and treated with compounds 2 h prior to tissue collection. Gene expression was profiled with quantitative real-time RT-PCR using either TaqMan single probes or with specifically-designed TaqMan low-density array cards. The relative expression of the selected genes was normalized to the reference gene hypoxanthine-guanine phosphoribosyltransferase (Hprt).

For “glucagon/rT3: reverse T3 (rT3) coupled to the glucagon analog with the same linker chemistry as glucagon/T3 (H[dS]QGTFTSDYSKYLDSRRAQDFVQWLMNGGPSSGAPPPSK; not fully specified (residue 40); also: reverse T3 (rT3) coupled with same linker chemistry as glucagon/T3)”, the body weight lowering [1] was “failed to lower body weight”, the cholesterol lowering effect [1] was “not evident” and the lipid lowering [1] was “did not lower lipids”.
For `CSCC[C@H](NC(=O)[C@H](CC(C)C)NC(=O)[C@H](Cc1c[nH]c2ccccc12)NC(=O)[C@H](CCC(N)=O)NC(=O)[C@@H](NC(=O)[C@H](Cc1ccccc1)NC(=O)[C@H](CC(=O)O)NC(=O)[C@H](CCC(N)=O)NC(=O)[C@H](C)NC(=O)[C@H](CCCNC(=N)N)NC(=O)[C@H](CCCNC(=N)N)NC(=O)[C@H](CO)NC(=O)[C@H](CC(=O)O)NC(=O)[C@H](CC(C)C)NC(=O)[C@H](Cc1ccc(O)cc1)NC(=O)[C@H](CCCCN)NC(=O)[C@H](CO)NC(=O)[C@H](Cc1ccc(O)cc1)NC(=O)[C@H](CC(=O)O)NC(=O)[C@H](CO)NC(=O)[C@@H](NC(=O)[C@H](Cc1ccccc1)NC(=O)[C@@H](NC(=O)CNC(=O)[C@H](CCC(N)=O)NC(=O)[C@@H](CO)NC(=O)[C@@H](N)Cc1c[nH]cn1)[C@@H](C)O)[C@@H](C)O)C(C)C)C(=O)N[C@@H](CC(N)=O)C(=O)NCC(=O)NCC(=O)N1CCC[C@H]1C(=O)N[C@@H](CO)C(=O)N[C@@H](CO)C(=O)NCC(=O)N[C@@H](C)C(=O)N1CCC[C@H]1C(=O)N1CCC[C@H]1C(=O)N1CCC[C@H]1C(=O)N[C@@H](CO)C(=O)N[C@@H](CCCCNC(=O)CC[C@H](NC(=O)[C@@H](N)Cc1cc(I)c(Oc2ccc(O)c(I)c2)c(I)c1)C(=O)O)C(N)=O` [glucagon/T3] (H-H[dS]QGTFTSDYSKYLDSRRAQDFVQWLMNGGPSSGAPPPSK([γGlu-Thyronine(3,5,3'-I3)])-NH2; N-terminus assumed), the degradation in plasma [2] was “remains intact with nearly no detectable degradation”, the “heart histology: thyrotoxic cardiomyopathy” value (DIO mice) was “none of these manifestations of thyrotoxicity or thyroid hormone induced cardiomyopathy were detectable” and the “whole heart expression of T3-sensitive genes (Dio2, Ucp2)” value (DIO mice) was “did not appear to be regulated”. The “whole heart expression of hypertrophic gene markers (Nppa, Nppb)” value (DIO mice) was “did not appear to be regulated”.
In the case of “glucagon/iT3: inverted attachment: amine of T3 covalently linked to the glucagon analog through a succinate spacer at Lys40 (H[dS]QGTFTSDYSKYLDSRRAQDFVQWLMNGGPSSGAPPPSK; not fully specified (residue 40))”, the body weight lowering [1] is reported as “failed to lower body weight”, the cholesterol lowering effect [1] is reported as “not evident” and the lipid lowering [1] is reported as “did not lower lipids”.
